Measurements published in paper PMC9150124, “Design of a Potent, Selective, and Brain-Penetrant Inhibitor of Wnt-Deactivating Enzyme Notum by Optimization of a Crystallographic Fragment Hit” (Journal of Medicinal Chemistry, 2022).

Legend:
Assay in all cases: SelectScreen kinase profiling, SSBK LanthaScreen Binding SP Technology
[1] = molecular target: kinase named in conditions (Homo sapiens, UniProt O43353); conditions: RIPK2, 10 μM
Protocol: (§1) Kinase selectivity screening was performed by Thermo Fisher Scientific (Paisley, U.K.) in their SelectScreen Biochemical Kinase Profiling Service. Assay information and data are presented in the Supporting Information.
(§2) Kinase selectivity screening was performed by ThermoFisher Scientific (Paisley, U.K.) in their SelectScreenTM
(§3) Biochemical Kinase Profiling service .
(§4) Illustration reproduced courtesy of Cell Signaling technology, Inc.
(§5) (B) Illustration of phylogenetic tree of kinases screened.

[2] = molecular target: kinase named in conditions (Homo sapiens, UniProt O75460); conditions: ERN1, 10 μM
Protocol: as §1, §2, §3, §4, §5

[3] = molecular target: kinase named in conditions (Homo sapiens, UniProt O94768); conditions: STK17B (DRAK2), 10 μM
Protocol: as §1, §2, §3, §4, §5

[4] = molecular target: kinase named in conditions (Homo sapiens, UniProt P10721, T670E); conditions: KIT T670E, 10 μM
Protocol: as §1, §2, §3, §4, §5

[5] = molecular target: kinase named in conditions (Homo sapiens, UniProt P15056, V600E); conditions: BRAF V599E, 10 μM
Protocol: as §1, §2, §3, §4, §5

[6] = molecular target: kinase named in conditions (Homo sapiens, UniProt P19525); conditions: EIF2AK2 (PKR), 10 μM
Protocol: as §1, §2, §3, §4, §5

[7] = molecular target: kinase named in conditions (Homo sapiens, UniProt P29320); conditions: EPHA3, 10 μM
Protocol: as §1, §2, §3, §4, §5

[8] = molecular target: kinase named in conditions (Homo sapiens, UniProt P30291); conditions: WEE1, 10 μM
Protocol: as §1, §2, §3, §4, §5

[9] = molecular target: kinase named in conditions (Homo sapiens, UniProt P50750); conditions: 10 μM
Protocol: as §1, §2, §3, §4, §5

[10] = molecular target: kinase named in conditions (Homo sapiens, UniProt P53671); conditions: LIMK2, 10 μM
Protocol: as §1, §2, §3, §4, §5

[11] = molecular target: kinase named in conditions (Homo sapiens, UniProt P57059); conditions: SIK1, 10 μM
Protocol: as §1, §2, §3, §4, §5

[12] = molecular target: kinase named in conditions (Homo sapiens, UniProt Q00536); conditions: CDK16 (PCTK1)/cyclin Y, 10 μM
Protocol: as §1, §2, §3, §4, §5

[13] = molecular target: kinase named in conditions (Homo sapiens, UniProt Q02763, R849W); conditions: TEK (TIE2) R849W, 10 μM
Protocol: as §1, §2, §3, §4, §5

[14] = molecular target: kinase named in conditions (Homo sapiens, UniProt Q02763, Y1108F); conditions: TEK (TIE2) Y1108F, 10 μM
Protocol: as §1, §2, §3, §4, §5

[15] = molecular target: kinase named in conditions (Homo sapiens, UniProt Q02779); conditions: MAP3K10 (MLK2), 10 μM
Protocol: as §1, §2, §3, §4, §5

[16] = molecular target: kinase named in conditions (Homo sapiens, UniProt Q15375); conditions: EPHA7, 10 μM
Protocol: as §1, §2, §3, §4, §5

[17] = molecular target: kinase named in conditions (Homo sapiens, UniProt Q16832, T654M); conditions: DDR2 T654M, 10 μM
Protocol: as §1, §2, §3, §4, §5

[18] = molecular target: kinase named in conditions (Homo sapiens, UniProt Q2M2I8); conditions: AAK1, 10 μM
Protocol: as §1, §2, §3, §4, §5

[19] = molecular target: kinase named in conditions (Homo sapiens, UniProt Q86UX6); conditions: STK32C (YANK3), 10 μM
Protocol: as §1, §2, §3, §4, §5

[20] = molecular target: kinase named in conditions (Homo sapiens, UniProt Q86Y07); conditions: VRK2, 10 μM
Protocol: as §1, §2, §3, §4, §5

[21] = molecular target: kinase named in conditions (Homo sapiens, UniProt Q8NI60); conditions: ADCK3, 10 μM
Protocol: as §1, §2, §3, §4, §5

[22] = molecular target: kinase named in conditions (Homo sapiens, UniProt Q8TD08); conditions: MAPK15 (ERK7), 10 μM
Protocol: as §1, §2, §3, §4, §5

[23] = molecular target: kinase named in conditions (Homo sapiens, UniProt Q96RR4); conditions: CAMKK2 (CaMKK beta), 10 μM
Protocol: as §1, §2, §3, §4, §5

[24] = molecular target: kinase named in conditions (Homo sapiens, UniProt Q96S53); conditions: TESK2, 10 μM
Protocol: as §1, §2, §3, §4, §5

[25] = molecular target: kinase named in conditions (Homo sapiens, UniProt Q99683); conditions: MAP3K5 (ASK1), 10 μM
Protocol: as §1, §2, §3, §4, §5

[26] = molecular target: kinase named in conditions (Homo sapiens, UniProt Q99759); conditions: MAP3K3 (MEKK3), 10 μM
Protocol: as §1, §2, §3, §4, §5

[27] = molecular target: kinase named in conditions (Homo sapiens, UniProt Q9H093); conditions: NUAK2, 10 μM
Protocol: as §1, §2, §3, §4, §5

[28] = molecular target: kinase named in conditions (Homo sapiens, UniProt Q9NRM7); conditions: LATS2, 10 μM
Protocol: as §1, §2, §3, §4, §5

[29] = molecular target: kinase named in conditions (Homo sapiens, UniProt Q9NYL2); conditions: ZAK, 10 μM
Protocol: as §1, §2, §3, §4, §5

[30] = molecular target: kinase named in conditions (Homo sapiens, UniProt Q9UBE8); conditions: NLK, 10 μM
Protocol: as §1, §2, §3, §4, §5

[31] = molecular target: kinase named in conditions (Homo sapiens, UniProt Q9UIK4); conditions: DAPK2, 10 μM
Protocol: as §1, §2, §3, §4, §5

[32] = molecular target: kinase named in conditions (Homo sapiens, UniProt Q9UM73, F1174L); conditions: ALK F1174L, 10 μM
Protocol: as §1, §2, §3, §4, §5

[33] = molecular target: kinase named in conditions (Homo sapiens, UniProt Q9UM73, R1275Q); conditions: ALK R1275Q, 10 μM
Protocol: as §1, §2, §3, §4, §5

[34] = molecular target: kinase named in conditions (Homo sapiens, UniProt Q9Y2H1); conditions: STK38L (NDR2), 10 μM
Protocol: as §1, §2, §3, §4, §5

## FC(F)(F)c1c(Cl)ccc(-n2ccnn2)c1Cl [8l, 1-(2,4-Dichloro-3-(trifluoromethyl)phenyl)-1H-1,2,3-triazole]
[1]
  inhibition at 10 µM: 5%
[2]
  inhibition at 10 µM: -4%
[3]
  inhibition at 10 µM: 14%
[4]
  inhibition at 10 µM: 1%
[5]
  inhibition at 10 µM: 0%
[6]
  inhibition at 10 µM: 6%
[7]
  inhibition at 10 µM: 7%
[8]
  inhibition at 10 µM: 9%
[9]; CDK9 (Inactive)
  inhibition at 10 µM: -5%
[9]; CDK9/cyclin K
  inhibition at 10 µM: -10%
[10]
  inhibition at 10 µM: -3%
[11]
  inhibition at 10 µM: -3%
[12]
  inhibition at 10 µM: 8%
[13]
  inhibition at 10 µM: 19%
[14]
  inhibition at 10 µM: -9%
[15]
  inhibition at 10 µM: 1%
[16]
  inhibition at 10 µM: 0%
[17]
  inhibition at 10 µM: -9%
[18]
  inhibition at 10 µM: 1%
[19]
  inhibition at 10 µM: 8%
[20]
  inhibition at 10 µM: -11%
[21]
  inhibition at 10 µM: 12%
[22]
  inhibition at 10 µM: 1%
[23]
  inhibition at 10 µM: -1%
[24]
  inhibition at 10 µM: 6%
[25]
  inhibition at 10 µM: 17%
[26]
  inhibition at 10 µM: -14%
[27]
  inhibition at 10 µM: 7%
[28]
  inhibition at 10 µM: 7%
[29]
  inhibition at 10 µM: 3%
[30]
  inhibition at 10 µM: 5%
[31]
  inhibition at 10 µM: 23%
[32]
  inhibition at 10 µM: 1%
[33]
  inhibition at 10 µM: -2%
[34]
  inhibition at 10 µM: 15%
